The structures appear in SMILES notation. pIC50: −log10 of the molar value.

Data on 23 molecules can be found in patent publication US12404260B2, “Pyridine rings containing derivatives as MALT1 inhibitors” (Janssen Pharmaceutica NV, priority 2019, dated 2025).

In experiment [1] the target is T1, full-length MALT1 protein (Strep-MALT1(1-824)-His) (Homo sapiens, UniProt Q9UDY8).
T1 construct: full-length MALT1 protein (Strep-MALT1(1-824)-His) purified from baculovirus-infected insect cells; Strep (N); His (C); made in house; host or cells: baculovirus-infected insect cells
T1 sequence (Q9UDY8 1-824): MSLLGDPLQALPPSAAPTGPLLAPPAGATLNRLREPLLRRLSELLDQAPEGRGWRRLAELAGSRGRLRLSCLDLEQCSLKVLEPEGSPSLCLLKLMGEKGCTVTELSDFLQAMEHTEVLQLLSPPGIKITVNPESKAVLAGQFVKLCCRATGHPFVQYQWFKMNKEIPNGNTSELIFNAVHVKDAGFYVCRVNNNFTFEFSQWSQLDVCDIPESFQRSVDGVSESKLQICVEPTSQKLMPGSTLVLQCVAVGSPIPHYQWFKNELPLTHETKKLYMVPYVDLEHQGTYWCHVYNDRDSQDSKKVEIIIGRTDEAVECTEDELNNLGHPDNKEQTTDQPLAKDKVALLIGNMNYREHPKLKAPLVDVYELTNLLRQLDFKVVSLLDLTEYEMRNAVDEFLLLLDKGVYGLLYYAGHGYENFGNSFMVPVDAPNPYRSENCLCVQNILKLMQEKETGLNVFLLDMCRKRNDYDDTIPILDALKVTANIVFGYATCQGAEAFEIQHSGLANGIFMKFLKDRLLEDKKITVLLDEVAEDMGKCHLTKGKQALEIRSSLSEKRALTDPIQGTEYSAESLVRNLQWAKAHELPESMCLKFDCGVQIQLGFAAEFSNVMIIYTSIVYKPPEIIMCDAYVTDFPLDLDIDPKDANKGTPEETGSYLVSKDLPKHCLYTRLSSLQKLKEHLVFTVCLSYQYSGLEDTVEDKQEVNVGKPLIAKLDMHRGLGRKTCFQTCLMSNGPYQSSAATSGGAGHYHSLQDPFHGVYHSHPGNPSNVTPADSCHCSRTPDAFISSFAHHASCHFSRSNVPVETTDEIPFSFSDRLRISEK
The experiment can be described thus: MALT1 Biochemical Protease Assay. The following applies: 10 nM FL MALT1, 200 μM Ac-LRSR-AMC, 50 min pre-incubation, 4 h at RT; read-out: MALT1_Biochemical activity (Ac-LRSR-amc) IC50. On the procedure: MALT1 protease activity was assessed in an in vitro assay using a tetrapeptide as substrate and full-length MALT1 protein (Strep-MALT1(1-824)-His) purified from baculovirus-infected insect cells. The tetrapeptide LRSR is coupled to AMC (7-amino-4-methylcoumarin) and provides a quenched, fluorescent substrate for the MALT1 protease (SM Biochemicals). Cleavage of AMC from the Arginine residue results in an increase in coumarin fluorescence measured at 460 nm (excitation 355 nm). The final assay buffer consisted of 10 nM FL MALT1 protein, 200 μM Ac-LRSR-AMC, 50 mM Tris pH 7.5, 0.6 M Citrate, 1 mM DTT, 1 mM EDTA, 0.05% BSA and 1.5% DMSO. Test compounds were spotted at 50 nL in 100% DMSO per well of a black 384-Proxiplate (Perkin Elmer). Test compound concentrations ranged from 30 μM to 0.5 nM using 11 dilution steps (1:3). Background signal was measured from control wells containing assay buffer without enzyme which functions as low control (LC). High control (HC) values were generated using the reaction with enzyme but no compound treatment. Compounds were pre-incubated with MALT1 enzyme for 50 minutes at RT. Substrate was added subsequently and fluorescence was measured in Labsystems fluoroskan at excitation 355 nm and emission 460 nm to determine time 0. The reaction was subsequently incubated for 4 h at RT and fluorescence was measured. For IC50 calculations, timepoint 0 was subtracted from the 4 h timepoint to correct for any potential autofluorescence of the compounds. The enzyme reaction was linear during the 4 h incubation period. Characterization of the substrate Ac-LRSR-AMC determined the Michaelis constant KM at 200 μM.
IC50 values were calculated using the following formula (Z prime should be >0.5): […]
A best-fit curve was fitted by a minimum sum of squares method to the plot of % Controlmin vs. compound concentration. From this an IC50 value (inhibitory concentration causing 50% inhibition) can be obtained. An estimate of the slope of the plot in terms of the Hill coefficient was also obtained.
Used in “Lexis Dose Response Curve Fitting” Version 1.0.

Experiment [2] concerns secretion of IL10 by OCI-LY3 ABC-DLBCL cells. Nature of the experiment: Human IL10 Mesoscale assay (OCI-LY3). It is filed as cell-based. The following applies: 24 h incubation, IL10 in supernatant. Here is the method: (§1) NFKB signaling regulates the secretion of multiple cytokines, including IL6 and IL10. Secretion of the cytokines IL6 and IL10 by OCI-LY3 ABC-DLBCL cells was measured using a mesoscale assay. Inhibition of NFKB signaling by MALT1 inhibitors results in a decrease of IL6/10 secretion.
(§2) OCI-LY3 cells were propagated in RPMI-1640 (Sigma Aldrich) supplemented with 10% fetal bovine serum (HyClone), 1 mM sodium pyruvate (Invitrogen), 2 mM L-glutamine (Sigma Aldrich) and 1% PenStrep (Sigma Aldrich). Cell passage number should not exceed 30. Cells should be kept between 0.5-2.5 million cells per mL during culturing and cells should be supplemented every 2-3 days with fresh 50 μM beta-mercaptoethanol. No beta-mercaptoethanol was used during the mesoscale assay.
(§3) For the Mesoscale assay, 100,000 OCI-LY3 cells were seeded per well into black-colored 96-well plates with clear bottom (Corning #3904) and test compounds were added in 9 dilution steps (1:2) ranging from 15 μM to 58.6 nM (final DMSO concentration 0.3%). DMSO control wells were used to determine the maximum signal (High Control (HC)). Treatment with the BTK inhibitor RN486 in a dose range from 30 nM to […] (9 dilutions of 1:2) served as a positive control for NFKB pathway inhibition and was used to determine the maximum inhibition (Low Control (LC)). Compounds and cells were incubated for 24 h at 37° C. and 5% CO2 (assay volume is 150 μL). After 24 h of incubation 50 μL of the supernatant was transferred to a MSD plate (V-Plex Proinflammation Panel 1 (human) kit, Mesoscale (MSD)) and incubated for 2 h with vigorous shaking (600 rpm) at room temperature. Following incubation, plates were washed 3× with PBS+0.05% Tween-20 and 25 μL detection antibody solution (IL6 & IL10 antibodies in diluent 3 (MSD)) was added per well followed by 2 h of incubation with vigorous shaking (600 rpm) at room temperature. After 3× washes with PBS+0.05% Tween-20, plates were incubated with 150 μL 2× Read Buffer T and read on SECTOR imager.

In experiment [3] the test system is secretion of IL6 by OCI-LY3 ABC-DLBCL cells. Nature of the experiment: Human IL6 Mesoscale assay (OCI-LY3). It is filed as cell-based. The conditions noted are these: 24 h incubation, IL6 in supernatant. Here is the method:
as §1, §2, §3

Broadly, the pIC50 is the negative decadic logarithm of the IC50, by convention in mol/L. Turning to `COc1cncc(NC(=O)Nc2cc(C(F)(F)F)c(-n3nccn3)nc2OC)c1[C@H](C)OC` (single isomer, unassigned) [Co. 137], the pIC50 in experiment [1] is 7.40; in experiment [2] (Homo sapiens), 7.10; in experiment [3] (Homo sapiens), 7.10.
Turning to `CO[C@H](C)c1c(NC(=O)Nc2cnc(-n3nccn3)c(C(F)(F)F)c2)cnc(N)c1Br` (single isomer, unassigned) [Co. 138], the pIC50 is 6.54 in experiment [1], 6.42 in experiment [2] (Homo sapiens) and 6.22 in experiment [3] (Homo sapiens).
In the same order, the values of `CO[C@@H](C)c1c(NC(=O)Nc2cnc(-n3nccn3)c(C(F)(F)F)c2)cnc(N)c1Br` (single isomer, unassigned) [Co. 139] are 7.70, 7.15 and roughly 7.00.
The like results for `COc1cncc(NC(=O)Nc2cc(Cl)c(-n3nccn3)nc2OC)c1[C@@H](C)OC` (single isomer, unassigned) [Co. 140] were, in that order, roughly 6.21, 6.33 and 6.27.
In the same order, the values of `COc1cncc(NC(=O)Nc2cc(Cl)c(-n3nccn3)nc2OC)c1[C@H](C)OC` (single isomer, unassigned) [Co. 141] are 7.22, 6.85 and 6.89.
Regarding `CO[C@H](c1c(NC(=O)Nc2cnc(-n3nccn3)c(C(F)(F)F)c2)cnc(C)c1Cl)C1CC1` (single isomer, unassigned) [Co. 142], the pIC50 in experiment [1] is 6.10; in experiment [2] (Homo sapiens), 6.11; in experiment [3] (Homo sapiens), 5.92.
As to `CO[C@@H](c1c(NC(=O)Nc2cnc(-n3nccn3)c(C(F)(F)F)c2)cnc(C)c1Cl)C1CC1` (single isomer, unassigned) [Co. 143], the values for the pIC50 in experiment [1], in experiment [2] (Homo sapiens) and in experiment [3] (Homo sapiens) were 7.30, 7.30 and 7.10, respectively.
As to `CO[C@H](C)c1c(NC(=O)Nc2cnc(-n3nccn3)c(C(F)(F)F)c2)cnc(C(F)F)c1Br` (single isomer, unassigned) [Co. 144], the pIC50 in experiment [1] was 7.40; in experiment [2] (Homo sapiens), roughly 7.35; in experiment [3] (Homo sapiens) it was 7.22.
On to `CO[C@H](C)c1c(NC(=O)Nc2ccnc(C(F)(F)F)c2)cnc(C)c1C#N` (single isomer, unassigned) [Co. 145], for which the pIC50 is 6.54 in experiment [1], 6.77 in experiment [2] (Homo sapiens) and 6.59 in experiment [3] (Homo sapiens).
The like results for `COc1cncc(NC(=O)Nc2cc(C(F)(F)F)c(-n3nccn3)nc2OC)c1[C@@H](C)OC` (single isomer, unassigned) [Co. 146] were, in that order, 6.57, 6.80 and 6.49.
In the same order, the values of `CO[C@@H](C)c1c(NC(=O)Nc2cnc(-n3nccn3)c(C(F)(F)F)c2)cnc(C(F)F)c1Br` (single isomer, unassigned) [Co. 147] are 6.25, 6.18 and 6.07.
In the same order, the values of `CC[C@@H](OC)c1c(NC(=O)Nc2cnc(-n3nccn3)c(C(F)(F)F)c2)cnc(C)c1C#N` (single isomer, unassigned) [Co. 148] are 7.52, roughly 7.22 and roughly 7.22.
`CO[C@@H](C)c1c(NC(=O)Nc2ccnc(C(F)(F)F)c2)cnc(C)c1C#N` (single isomer, unassigned) [Co. 149]: the figures for the pIC50 in experiment [1], in experiment [2] (Homo sapiens) and in experiment [3] (Homo sapiens) were 5.54, 5.88 and 5.72, respectively.
As to `CC[C@H](OC)c1c(NC(=O)Nc2cnc(-n3nccn3)c(C(F)(F)F)c2)cnc(C)c1C#N` (single isomer, unassigned) [Co. 150], the pIC50 is 7.00 in experiment [1], 6.85 in experiment [2] (Homo sapiens) and 6.82 in experiment [3] (Homo sapiens).
In the same order, the values of `CNc1ncc(NC(=O)Nc2cnc(-n3nccn3)c(Cl)c2)c([C@H](C)OC)c1Br` (single isomer, unassigned) [Co. 153] are 4.60, 5.06 and 4.93.
In the same order, the values of `CNc1ncc(NC(=O)Nc2cnc(-n3nccn3)c(Cl)c2)c([C@@H](C)OC)c1Br` (single isomer, unassigned) [Co. 154] are 5.57, 6.15 and 5.96.
`CO[C@H](C)c1c(NC(=O)Nc2cnc(-n3nccn3)c(Cl)c2)cncc1OC(C)C` [Co. 9]: the pIC50 is 6.77 in experiment [1], 6.77 in experiment [2] and 6.72 in experiment [3].
As for `COC(C)c1c(Cl)cncc1NC(=O)Nc1cnc(-n2nccn2)c(Cl)c1` (stereo not drawn) [Co. 22], the pIC50 is 6.54 in experiment [1], 6.92 in experiment [2] (Homo sapiens) and 6.80 in experiment [3] (Homo sapiens).
The like results for `CO[C@H](C)c1c(Cl)cncc1NC(=O)Nc1cnc(-n2nccn2)c(Cl)c1` [Co. 23] were, in that order, 6.96, 6.92 and 6.74.
Consider `CO[C@@H](C)c1c(Cl)cncc1NC(=O)Nc1cnc(-n2nccn2)c(Cl)c1` [Co. 24], for which the figures for the pIC50 in experiment [1], in experiment [2] and in experiment [3] were 5.34, 5.40 and 5.25, respectively.
The like results for `COC(C)c1c(C#N)cncc1NC(=O)Nc1cnc(-n2nccn2)c(Cl)c1` (stereo not drawn) [Co. 25] were, in that order, 6.62, 6.74 and 6.66.
The like results for `CO[C@@H](C)c1c(C#N)cncc1NC(=O)Nc1cnc(-n2nccn2)c(Cl)c1` [Co. 26] were, in that order, 6.72, 6.92 and 6.59.
In the same order, the values of `CO[C@H](C)c1c(C#N)cncc1NC(=O)Nc1cnc(-n2nccn2)c(Cl)c1` [Co. 27] are 5.68, 5.80 and 5.55.
